This passage reports IC50 results from patent US11098044B2, “Imidazopyridinyl compounds and use thereof for treatment of neurodegenerative disorders” (1ST Biotherapeutics, Inc., priority 2019, dated 2021).

Holding throughout (format): biochemical
One test has as its target LRRK2 (WT) (Homo sapiens (Human), UniProt Q5S007). The test is described as follows: LRRK2 Kinase Assay (Adapta). Particulars: 70 μM ATP, LRRKtide substrate. The method, then: (§1) The LRRK2 and LRRK2 G2019S kinase assays were performed using the Adapta™ technology in ThermoFisher Scientific. This experiment was carried out according to the supplier's protocol. Briefly, assay conditions were as follows. The mixture of substrate (LRRKtide) and each kinase was prepared in 50 mM Tris pH 8.5, 0.01% BRIJ-35, 10 mM MgCl2, 1 mM EGTA, 0.02% NaN3. Assays were performed in the presence of 70 μM ATP and 100 μM ATP (KmATP) in LRRK2 and LRRK2 G2019S, respectively. The reaction was progressed at room temperature for 1 hour. Upon completion of kinase reaction, 5 μL of Detection Mix was added and after 60 min incubation time, the emission ratio of 665/615 nm was calculated.

For the next test, the target named is LRRK2 G2019S (Homo sapiens (Human), UniProt Q5S007, G2019S). Nature of the test: LRRK2 G2019S Kinase Assay (Adapta). Particulars: 100 μM ATP, LRRKtide substrate; read-out: LRRK2_G2019S IC50. The method, then:
as §1

The target in test [1] is c-Abl (His-tagged recombinant human ABL1) (Homo sapiens (Human), UniProt P00519). Nature of the test: c-abl Kinase Assay (ADP-Glo). The settings on record: ATP (25 μM), Abltide substrate. The method, then:
ADP-Glo assay kit was purchased from Promega. Magnesium chloride (MgCl2), bovine serum albumin (BSA), ethylene glycol-bis(p-aminoethyl ether)-N,N,N′,N′-tetraacetic acid (EGTA), triton X-100, 1,4-dithiothreitol (DTT) and dimethyl sulfoxide (DMSO) were purchased from Sigma-Aldrich. HEPES buffer was purchased from Gibco. ABL1 kinase and Abltide were purchased from Signalchem.
c-Abl kinase activity was measured by Promega's ADP-Glo™ Assay. In this assay, His-tagged recombinant human ABL1 (0.25 ng/μl) is incubated with 5 μL of compounds (0.5% DMSO), 5 μL of Abltide (0.01 μg/μl) and 5 μL of ATP (25 μM) in buffer (50 mM HEPES, 7.5; 10 mM MgCl2; 1 mM EGTA; 0.05% BSA; 0.01% Triton X-100; 2 mM DTT). The assay was started by incubating the reaction mixture in a 96-well plate at 30° C. for 30-min. After the incubation, 25 μL ADP-Glo reagent was added and the reaction was incubated at room temperature for 40-min to stop the reaction and degrade residual ATP. The ADP product was then converted to ATP by adding 50 μL per well of detection reagent. Luminescence was detected after 30-min room temperature incubation with the Molecular device I3X plate reader. The IC50 values were calculated from a series of percent inhibition values determined at a range of inhibitor concentration using software routines as implemented in the GraphPad Prism 7 software and Sigma Plot 13.0.

Sequence of LRRK2 (WT) (Q5S007 whole entry): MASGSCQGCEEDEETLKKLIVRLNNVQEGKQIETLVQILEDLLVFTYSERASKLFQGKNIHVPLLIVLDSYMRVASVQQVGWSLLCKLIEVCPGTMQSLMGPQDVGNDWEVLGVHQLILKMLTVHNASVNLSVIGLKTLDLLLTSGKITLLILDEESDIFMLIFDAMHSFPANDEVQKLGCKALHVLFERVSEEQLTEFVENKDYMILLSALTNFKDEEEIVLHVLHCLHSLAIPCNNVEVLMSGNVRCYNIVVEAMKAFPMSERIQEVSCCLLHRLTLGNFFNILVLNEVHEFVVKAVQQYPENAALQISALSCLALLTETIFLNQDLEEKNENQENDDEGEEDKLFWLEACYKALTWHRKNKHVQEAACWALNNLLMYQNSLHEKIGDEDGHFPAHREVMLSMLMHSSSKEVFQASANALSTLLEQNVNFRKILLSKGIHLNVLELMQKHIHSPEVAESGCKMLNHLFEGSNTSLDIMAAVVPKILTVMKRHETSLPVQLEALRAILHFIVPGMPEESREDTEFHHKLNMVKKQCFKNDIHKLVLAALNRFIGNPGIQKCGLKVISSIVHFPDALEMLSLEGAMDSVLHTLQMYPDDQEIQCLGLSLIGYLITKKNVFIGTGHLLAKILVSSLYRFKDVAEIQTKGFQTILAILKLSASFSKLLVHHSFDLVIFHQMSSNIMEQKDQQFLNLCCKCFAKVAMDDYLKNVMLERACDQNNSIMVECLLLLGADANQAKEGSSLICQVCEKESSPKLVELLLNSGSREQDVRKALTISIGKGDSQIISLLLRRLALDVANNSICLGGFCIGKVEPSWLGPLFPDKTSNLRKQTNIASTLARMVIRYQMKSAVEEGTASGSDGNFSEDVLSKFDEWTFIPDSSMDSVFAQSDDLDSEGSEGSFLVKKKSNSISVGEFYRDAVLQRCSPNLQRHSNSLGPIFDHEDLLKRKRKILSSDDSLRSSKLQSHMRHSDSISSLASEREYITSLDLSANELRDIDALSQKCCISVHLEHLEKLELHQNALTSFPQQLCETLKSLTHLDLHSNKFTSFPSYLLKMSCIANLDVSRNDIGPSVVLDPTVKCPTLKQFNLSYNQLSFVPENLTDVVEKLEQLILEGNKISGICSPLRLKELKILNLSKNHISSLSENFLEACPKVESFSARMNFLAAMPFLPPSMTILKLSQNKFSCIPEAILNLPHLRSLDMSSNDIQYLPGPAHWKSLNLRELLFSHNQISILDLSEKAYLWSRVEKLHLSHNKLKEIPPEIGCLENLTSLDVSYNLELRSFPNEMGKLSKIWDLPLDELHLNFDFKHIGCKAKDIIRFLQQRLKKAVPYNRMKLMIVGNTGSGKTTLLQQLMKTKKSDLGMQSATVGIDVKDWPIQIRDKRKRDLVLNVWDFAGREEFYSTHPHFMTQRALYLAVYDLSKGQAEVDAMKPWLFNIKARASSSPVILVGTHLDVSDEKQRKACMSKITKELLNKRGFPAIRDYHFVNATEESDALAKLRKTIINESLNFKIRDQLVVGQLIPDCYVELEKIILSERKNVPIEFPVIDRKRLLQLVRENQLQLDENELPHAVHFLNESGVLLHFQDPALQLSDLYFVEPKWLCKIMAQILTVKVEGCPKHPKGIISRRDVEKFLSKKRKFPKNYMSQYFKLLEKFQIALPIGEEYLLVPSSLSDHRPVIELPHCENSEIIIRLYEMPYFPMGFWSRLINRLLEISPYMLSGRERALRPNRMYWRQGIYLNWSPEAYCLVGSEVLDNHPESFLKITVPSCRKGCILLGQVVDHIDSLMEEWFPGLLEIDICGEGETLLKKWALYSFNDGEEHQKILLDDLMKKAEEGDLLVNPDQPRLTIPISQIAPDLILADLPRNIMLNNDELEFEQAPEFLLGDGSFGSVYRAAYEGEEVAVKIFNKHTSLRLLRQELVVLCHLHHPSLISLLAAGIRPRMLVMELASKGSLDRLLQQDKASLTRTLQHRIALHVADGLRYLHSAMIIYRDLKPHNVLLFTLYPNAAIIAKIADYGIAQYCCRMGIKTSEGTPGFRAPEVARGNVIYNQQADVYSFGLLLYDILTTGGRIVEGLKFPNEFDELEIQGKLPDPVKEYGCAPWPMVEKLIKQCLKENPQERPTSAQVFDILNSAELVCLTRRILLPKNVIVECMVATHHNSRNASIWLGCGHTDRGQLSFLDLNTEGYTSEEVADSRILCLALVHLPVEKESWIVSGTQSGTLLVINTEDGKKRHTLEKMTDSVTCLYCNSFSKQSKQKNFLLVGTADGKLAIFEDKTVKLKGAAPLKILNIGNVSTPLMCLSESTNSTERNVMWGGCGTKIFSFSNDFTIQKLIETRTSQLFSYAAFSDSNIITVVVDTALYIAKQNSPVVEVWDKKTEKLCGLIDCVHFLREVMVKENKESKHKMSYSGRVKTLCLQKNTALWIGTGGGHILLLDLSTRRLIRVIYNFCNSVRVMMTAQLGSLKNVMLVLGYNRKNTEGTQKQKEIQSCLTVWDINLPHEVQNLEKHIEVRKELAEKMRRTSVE
Sequence of c-Abl (His-tagged recombinant human ABL1) (P00519 whole entry): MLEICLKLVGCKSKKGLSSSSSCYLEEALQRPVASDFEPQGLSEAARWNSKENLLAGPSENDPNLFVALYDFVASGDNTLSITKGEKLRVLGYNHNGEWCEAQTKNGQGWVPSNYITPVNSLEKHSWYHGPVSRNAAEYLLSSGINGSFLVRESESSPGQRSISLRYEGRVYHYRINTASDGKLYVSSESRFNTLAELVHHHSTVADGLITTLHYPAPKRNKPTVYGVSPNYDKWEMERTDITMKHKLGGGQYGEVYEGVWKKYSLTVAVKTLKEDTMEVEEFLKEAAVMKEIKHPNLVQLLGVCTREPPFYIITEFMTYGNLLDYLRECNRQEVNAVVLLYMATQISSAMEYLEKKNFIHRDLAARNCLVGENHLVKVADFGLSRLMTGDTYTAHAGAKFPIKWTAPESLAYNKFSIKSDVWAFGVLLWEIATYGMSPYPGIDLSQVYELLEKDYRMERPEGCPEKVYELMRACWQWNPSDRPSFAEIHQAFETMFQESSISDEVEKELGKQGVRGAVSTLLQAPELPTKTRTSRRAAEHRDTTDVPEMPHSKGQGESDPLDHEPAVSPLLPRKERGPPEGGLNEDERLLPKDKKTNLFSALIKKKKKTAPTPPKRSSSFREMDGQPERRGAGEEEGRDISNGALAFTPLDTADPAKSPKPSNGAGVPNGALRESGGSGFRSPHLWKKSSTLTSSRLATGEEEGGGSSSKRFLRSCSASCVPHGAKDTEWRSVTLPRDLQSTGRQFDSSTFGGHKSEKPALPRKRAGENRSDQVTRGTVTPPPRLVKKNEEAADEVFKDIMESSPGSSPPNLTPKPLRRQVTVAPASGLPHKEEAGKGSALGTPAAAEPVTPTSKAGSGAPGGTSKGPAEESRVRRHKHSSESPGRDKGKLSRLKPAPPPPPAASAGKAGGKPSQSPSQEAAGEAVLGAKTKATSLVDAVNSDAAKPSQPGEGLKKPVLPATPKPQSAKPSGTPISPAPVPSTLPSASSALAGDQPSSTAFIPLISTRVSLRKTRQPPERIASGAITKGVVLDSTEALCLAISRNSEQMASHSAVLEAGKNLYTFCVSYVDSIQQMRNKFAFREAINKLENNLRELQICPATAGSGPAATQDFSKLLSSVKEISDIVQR
Sequence of LRRK2 G2019S (Q5S007 whole entry G2019S): as the sequence (Q5S007 whole entry) above, with G2019S counted along it

For `O=C(Nc1cn2cc(-c3cnc4[nH]ccc4c3)ccc2n1)[C@@H]1C[C@@H]1F` [Example 27, (1S,2S)—N-(6-(1H-pyrrolo[2,3-b]pyridin-5-yl)imidazo[1,2-a]pyridin-2-yl)-2-fluorocyclopropane-1-carboxamide], the IC50 on LRRK2 (WT) is 101 to 1000 nM; on LRRK2 G2019S, 10 to 100 nM; in test [1] it was < 10 nM.
Taken in the same sequence, the figures for `Cc1ccnc(F)c1-c1ccc2nc(NC(=O)[C@@H]3C[C@@H]3F)cn2c1` [Example 47, (1S,2S)-2-fluoro-N-(6-(2-fluoro-4-methylpyridin-3-yl)imidazo[1,2-a]pyridin-2-yl)cyclopropane-1-carboxamide] were 101 to 1000 nM, 10 to 100 nM and 10 to 100 nM.
`CC(C)NCc1c(F)cccc1-c1ccc2nc(NC(=O)[C@@H]3C[C@@H]3F)cn2c1` [Example 81, (1S,2S)-2-fluoro-N-(6-(3-fluoro-2-((isopropylamino)methyl)phenyl)imidazo[1,2-a]pyridin-2-yl)cyclopropanecarboxamide]: the IC50 (against LRRK2 (WT); on LRRK2 G2019S; in test [1]) was > 1000 nM throughout.
As for `Cc1c(F)cccc1-c1ccc2nc(NC(=O)C3CC(F)(F)C3)cn2c1` [Example 79, 3,3-difluoro-N-(6-(3-fluoro-2-methylphenyl)imidazo[1,2-a]pyridin-2-yl)cyclobutanecarboxamide], the IC50 against LRRK2 (WT) was 101 to 1000 nM; at LRRK2 G2019S, 101 to 1000 nM; in test [1], 10 to 100 nM.
As for `Cc1cc(F)cc(C)c1-c1ccc2nc(NC(=O)[C@@H]3C[C@@H]3F)cn2c1` [Example 38, (1S,2S)-2-fluoro-N-(6-(4-fluoro-2,6-dimethylphenyl)imidazo[1,2-a]pyridin-2-yl)cyclopropane-1-carboxamide], the IC50 on LRRK2 (WT) is 101 to 1000 nM; at LRRK2 G2019S it was 101 to 1000 nM; in test [1] it was < 10 nM.
As to `Cc1cccc(F)c1-c1ccc2nc(NC(=O)[C@@H]3C[C@@H]3F)cn2c1` [Example 2, (1S,2S)-2-fluoro-N-(6-(2-fluoro-6-methylphenyl)imidazo[1,2-a]pyridin-2-yl)cyclopropane-1-carboxamide], the IC50 was 101 to 1000 nM on LRRK2 (WT), 10 to 100 nM at LRRK2 G2019S and < 10 nM in test [1].
For `Cc1ccncc1-c1ccc2nc(NC(=O)[C@@H]3C[C@@H]3F)cn2c1` [Example 6, (1S,2S)-2-fluoro-N-(6-(4-methylpyridin-3-yl)imidazo[1,2-a]pyridin-2-yl)cyclopropane-1-carboxamide], the IC50 on LRRK2 (WT) fell in the range of 101 to 1000 nM; on LRRK2 G2019S, 101 to 1000 nM; in test [1], 10 to 100 nM.
For the compound `Cc1cc(Cl)ccc1-c1ccc2nc(NC(=O)[C@@H]3C[C@@H]3F)cn2c1` [Example 29, (1S,2S)—N-(6-(4-chloro-2-methylphenyl)imidazo[1,2-a]pyridin-2-yl)-2-fluorocyclopropane-1-carboxamide], the IC50 on LRRK2 (WT) is 101 to 1000 nM; at LRRK2 G2019S it was 101 to 1000 nM; in test [1], < 10 nM.
Consider `Cc1cccc(-c2ccc3nc(NC(=O)[C@@H]4C[C@@H]4F)cn3c2)c1C` [Example 22, (1S,2S)—N-(6-(2,3-dimethylphenyl)imidazo[1,2-a]pyridin-2-yl)-2-fluorocyclopropane-1-carboxamide], for which the IC50 against LRRK2 (WT) was 101 to 1000 nM; on LRRK2 G2019S, 101 to 1000 nM; in test [1], < 10 nM.
`Cc1ccc2[nH]cc(C)c2c1-c1ccc2nc(NC(=O)[C@@H]3C[C@@H]3F)cn2c1` [Example 63, (1S,2S)—N-(6-(3,5-dimethyl-1H-indol-4-yl)imidazo[1,2-a]pyridin-2-yl)-2-fluorocyclopropanecarboxamide]: the IC50 was 101 to 1000 nM at LRRK2 (WT), 10 to 100 nM on LRRK2 G2019S and < 10 nM in test [1].
Taken in the same sequence, the figures for `Cc1c(F)cccc1-c1ccc2nc(NC(=O)[C@@H]3C[C@@H]3F)c(F)n2c1` [Example 33, (1S,2S)-2-fluoro-N-(3-fluoro-6-(3-fluoro-2-methylphenyl)imidazo[1,2-a]pyridin-2-yl)cyclopropane-1-carboxamide] were 101 to 1000 nM, 101 to 1000 nM and < 10 nM.
For `Cc1c(F)ccc(-c2ccc3nc(NC(=O)[C@@H]4C[C@@H]4F)cn3c2)c1C` [Example 37, (1S,2S)-2-fluoro-N-(6-(4-fluoro-2,3-dimethylphenyl)imidazo[1,2-a]pyridin-2-yl)cyclopropane-1-carboxamide], the IC50 at LRRK2 (WT) was 101 to 1000 nM; at LRRK2 G2019S it was 101 to 1000 nM; in test [1], < 10 nM.
Regarding `Cc1ccc(N)cc1-c1ccc2nc(NC(=O)[C@@H]3C[C@@H]3F)cn2c1` [Example 23, (1S,2S)—N-(6-(5-amino-2-methylphenyl)imidazo[1,2-a]pyridin-2-yl)-2-fluorocyclopropane-1-carboxamide], the concentration for half-maximal inhibition (IC50) on LRRK2 (WT) is 101 to 1000 nM; at LRRK2 G2019S, 10 to 100 nM; in test [1] it was < 10 nM.
Consider `CC(=O)NCc1c(F)cccc1-c1ccc2nc(NC(=O)[C@@H]3C[C@@H]3F)cn2c1` [Example 75, (1S,2S)—N-(6-(2-(acetamidomethyl)-3-fluorophenyl)imidazo[1,2-a]pyridin-2-yl)-2-fluorocyclopropanecarboxamide], for which the 50% inhibitory concentration (IC50) is > 1000 nM on LRRK2 (WT), > 1000 nM on LRRK2 G2019S and 101 to 1000 nM in test [1].
For `Cc1ccncc1-c1ccc2nc(NC(=O)[C@@H]3C[C@@H]3F)c(C)n2c1` [Example 5, (1S,2S)-2-fluoro-N-(3-methyl-6-(4-methylpyridin-3-yl)imidazo[1,2-a]pyridin-2-yl)cyclopropane-1-carboxamide], the IC50 at LRRK2 (WT) was > 1000 nM; at LRRK2 G2019S, > 1000 nM; in test [1], 101 to 1000 nM.
For `Cc1c(O)cccc1-c1ccc2nc(NC(=O)[C@@H]3C[C@@H]3F)cn2c1` [Example 20, (1S,2S)-2-fluoro-N-(6-(3-hydroxy-2-methylphenyl)imidazo[1,2-a]pyridin-2-yl)cyclopropane-1-carboxamide], the results for the IC50 (on LRRK2 (WT); on LRRK2 G2019S; in test [1]) were < 10 nM, 10 to 100 nM and < 10 nM, respectively.
For the compound `Cc1c(F)ccc(F)c1-c1ccc2nc(NC(=O)[C@@H]3C[C@@H]3F)cn2c1` [Example 45, (1S,2S)—N-(6-(3,6-difluoro-2-methylphenyl)imidazo[1,2-a]pyridin-2-yl)-2-fluorocyclopropane-1-carboxamide], the IC50 is 101 to 1000 nM against LRRK2 (WT), 10 to 100 nM on LRRK2 G2019S and < 10 nM in test [1].
Taken in the same sequence, the figures for `O=C(Nc1cn2cc(-c3cnccc3Cl)ccc2n1)[C@@H]1C[C@@H]1F` [Example 21, (1S,2S)—N-(6-(4-chloropyridin-3-yl)imidazo[1,2-a]pyridin-2-yl)-2-fluorocyclopropane-1-carboxamide] were 101 to 1000 nM, 101 to 1000 nM and 10 to 100 nM.
Taken in the same sequence, the figures for `Cc1c(F)cccc1-c1ccc2nc(NC(=O)C3CCC3)cn2c1` [Example 76, N-(6-(3-fluoro-2-methylphenyl)imidazo[1,2-a]pyridin-2-yl)cyclobutanecarboxamide] were 10 to 100 nM, 10 to 100 nM and 10 to 100 nM.
Taken in the same sequence, the figures for `O=C(Nc1cn2cc(-c3cccc(F)c3COCCO)ccc2n1)[C@@H]1C[C@@H]1F` [Example 83, (1S,2S)-2-fluoro-N-(6-(3-fluoro-2-((2-hydroxyethoxy)methyl)phenyl)imidazo[1,2-a]pyridin-2-yl)cyclopropanecarboxamide] were 101 to 1000 nM, > 1000 nM and 101 to 1000 nM.
Consider `Cc1c(F)cccc1-c1ccc2nc(NC(=O)[C@@H]3C[C@@H]3F)c(Cl)n2c1` [Example 3, (1S,2S)—N-(3-chloro-6-(3-fluoro-2-methylphenyl)imidazo[1,2-a]pyridin-2-yl)-2-fluorocyclopropane-1-carboxamide], for which the half-maximal inhibitory concentration (IC50) lay in the range of 101 to 1000 nM against LRRK2 (WT), 101 to 1000 nM at LRRK2 G2019S and 10 to 100 nM in test [1].
Consider `Cc1cc(F)c(O)cc1-c1ccc2nc(NC(=O)[C@@H]3C[C@@H]3F)cn2c1` [Example 43, (1S,2S)-2-fluoro-N-(6-(4-fluoro-5-hydroxy-2-methylphenyl)imidazo[1,2-a]pyridin-2-yl)cyclopropane-1-carboxamide], for which the IC50 on LRRK2 (WT) was 101 to 1000 nM; on LRRK2 G2019S, 10 to 100 nM; in test [1] it was < 10 nM.
